# Where a SMILES comes first, the peptide text is derived from it. [ ]: non-standard residue; d: D form. dPhe(4-Cl) = N[C@H](Cc1ccc(Cl)cc1)C(=O)O; NMeL = CN[C@@H](CC(C)C)C(=O)O; pGlu = O=C1CC[C@@H](C(=O)O)N1; ΔPro = O=C(O)[C@@H]1C=CCN1
# Columns and labels:
# male rats = experiment: 14-day daily injection in male rats: gonadal function, hormones, androgen-dependent behavior, fertility and recovery; format: in vivo, rat; details: 1 milligram daily for 14 days
# Source text: The peptide is used at a level effective to reduce testes and seminal vesicles weights and also to inhibit spermatogenesis after a 14-day administration to male rats. […] Prostate weights of male rats recover in 2-3 weeks and seminal vesicles weights in 4-5 weeks. It is preferred to use dosage levels in the range of from about 0.1 to about 1 milligram per rat per day, which can be administered without detrimental side effects.
# (§1) Male rats (about 320 grams each) are each treated with 1 milligram of the peptide synthesized in Example I, once a day, for 14 days by injection in 0.2 ml. of corn oil. All the rats show a decrease in testes and seminal vesicles weight, spermatogenesis and plasma androgen levels.
# Full recovery of testes and seminal vesicle weights, androgen-dependent behavior and spermatogenesis ultimately occurs following cessation of the 14-day peptide administration. […] Fertility, as assessed by the ability to impregnate females, is restored in all of the rats which have not been sacrificed within 6 weeks after cessation of the injections.
# as §1, with “A first group (I) of male” for “Male”, “Peptide A” for “the peptide”, “III, every day” for “I, once a day,”, “days,” for “days”, “levels. […]” for “levels.”
# [1] = tested on: release of gonadotropins by the pituitary gland; details: versus [des His2]-LRF; cited from earlier work
Compound,side effects / damage (male rats),"potency as inhibitor of the release of gonadotropins, relative to the same peptide with Gly in the 6-position [1] [times more potent]"
"CC(=O)N1CC=C[C@H]1C(=O)N[C@H](Cc1ccc(Cl)cc1)C(=O)N[C@H](Cc1c[nH]c2ccccc12)C(=O)N[C@@H](CO)C(=O)N[C@@H](Cc1ccc(O)cc1)C(=O)N[C@H](Cc1c[nH]c2ccccc12)C(=O)N(C)[C@@H](CC(C)C)C(=O)N[C@@H](CCCNC(=N)N)C(=O)N1CCC[C@H]1C(=O)NCC(N)=O [Example I, [Ac-dehydro Pro^1, pCl--D--Phe^2, D--Trp^3,6, NαMeLeu^7]-LRF] (Ac-[ΔPro][dPhe(4-Cl)][dW]SY[dW][NMeL]RPG-NH2)",without harmful side effects or irreversible damage,
"[pGlu]WSY[dA]LRPG-NH2 [[des His^2, D-Ala^6]-LRF]",,3
